One block for each molecule: values may come before it.
Test system: 616215-338-R-J1-PDC tumor spheroids, viability
Assay: Anticancer human tumor 616215-338-R-J1-PDC patient-derived colon adenocarcinoma cell line growth inhibition [GQUAD]
Conditions: spheroids with HUVEC and MSC; for IC50: curve of first compound; for viability, T/C: stronger effect = lower value
Procedure, shortened: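 Multi-cell-type spheroids of tumor cells with HUVEC and mesenchymal stem cells, treated with drug combinations. Concentrations descend in half-log steps from near clinical Cmax, or from 10 microM where Cmax is unknown; viability read-out.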

[1] = second compound 0.0316 µM, first compound 0.0316 µM
[2] = second compound 0.0316 µM, first compound 0.1 µM
[3] = second compound 0.0316 µM, first compound 0.316 µM
[4] = second compound 0.0316 µM, first compound 1 µM
[5] = second compound 0.0316 µM, first compound 3.16 µM
[6] = second compound 0.0316 µM, first compound 10 µM
[7] = second compound 0.1 µM, first compound 0.0316 µM
[8] = second compound 0.1 µM, first compound 0.1 µM
[9] = second compound 0.1 µM, first compound 0.316 µM
[10] = second compound 0.1 µM, first compound 1 µM
[11] = second compound 0.1 µM, first compound 3.16 µM
[12] = second compound 0.1 µM, first compound 10 µM
[13] = second compound 0.316 µM, first compound 0.0316 µM
[14] = second compound 0.316 µM, first compound 0.1 µM
[15] = second compound 0.316 µM, first compound 0.316 µM
[16] = second compound 0.316 µM, first compound 1 µM
[17] = second compound 0.316 µM, first compound 3.16 µM
[18] = second compound 0.316 µM, first compound 10 µM
[19] = second compound 1 µM, first compound 0.0316 µM
[20] = second compound 1 µM, first compound 0.1 µM
[21] = second compound 1 µM, first compound 0.316 µM
[22] = second compound 1 µM, first compound 1 µM
[23] = second compound 1 µM, first compound 3.16 µM
[24] = second compound 1 µM, first compound 10 µM
[25] = second compound 3.16 µM, first compound 0.0316 µM
[26] = second compound 3.16 µM, first compound 0.1 µM
[27] = second compound 3.16 µM, first compound 0.316 µM
[28] = second compound 3.16 µM, first compound 1 µM
[29] = second compound 3.16 µM, first compound 3.16 µM
[30] = second compound 3.16 µM, first compound 10 µM
[31] = second compound 10 µM, first compound 0.0316 µM
[32] = second compound 10 µM, first compound 0.1 µM
[33] = second compound 10 µM, first compound 0.316 µM
[34] = second compound 10 µM, first compound 1 µM
[35] = second compound 10 µM, first compound 3.16 µM
[36] = second compound 10 µM, first compound 10 µM
[37] = second compound 0.0316 µM, first compound 0.000999 µM
[38] = second compound 0.0316 µM, first compound 0.00316 µM
[39] = second compound 0.0316 µM, first compound 0.00999 µM
[40] = second compound 0.0316 µM, first compound 0.0999 µM
[41] = second compound 0.1 µM, first compound 0.000999 µM
[42] = second compound 0.1 µM, first compound 0.00316 µM
[43] = second compound 0.1 µM, first compound 0.00999 µM
[44] = second compound 0.1 µM, first compound 0.0999 µM
[45] = second compound 0.316 µM, first compound 0.000999 µM
[46] = second compound 0.316 µM, first compound 0.00316 µM
[47] = second compound 0.316 µM, first compound 0.00999 µM
[48] = second compound 0.316 µM, first compound 0.0999 µM
[49] = second compound 1 µM, first compound 0.000999 µM
[50] = second compound 1 µM, first compound 0.00316 µM
[51] = second compound 1 µM, first compound 0.00999 µM
[52] = second compound 1 µM, first compound 0.0999 µM
[53] = second compound 3.16 µM, first compound 0.000999 µM
[54] = second compound 3.16 µM, first compound 0.00316 µM
[55] = second compound 3.16 µM, first compound 0.00999 µM
[56] = second compound 3.16 µM, first compound 0.0999 µM
[57] = second compound 10 µM, first compound 0.000999 µM
[58] = second compound 10 µM, first compound 0.00316 µM
[59] = second compound 10 µM, first compound 0.00999 µM
[60] = second compound 10 µM, first compound 0.0999 µM
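Also: spheroids exposed to agents for 7 days before readout.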
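For viability, T/C in this document: percent viability relative to DMSO vehicle control wells taken as 100%.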

IC50 (second compound 0.0316 µM): > 10000 nM | IC50 (second compound 0.1 µM): > 10000 nM | IC50 (second compound 0.316 µM): 938 nM | IC50 (second compound 1 µM): < 31.6 nM | IC50 (second compound 3.16 µM): < 31.6 nM | IC50 (second compound 10 µM): < 31.6 nM
Compound: C=CC(=O)N1CCN(c2nc(=O)n(-c3c(C)ccnc3C(C)C)c3nc(-c4c(O)cccc4F)c(F)cc23)C(C)C1 (stereo not drawn) + Cc1cnc(CNC(=O)c2c(=O)c3ccc(N4CCCN(C)CC4)nc3n3c2sc2ccccc23)cn1
viability, T/C [1]: 106% | viability, T/C [2]: 109% | viability, T/C [3]: 99.1% | viability, T/C [4]: 95.9% | viability, T/C [5]: 89.2% | viability, T/C [6]: 63.7% | viability, T/C [7]: 79.8% | viability, T/C [8]: 73.9% | viability, T/C [9]: 43.4% | viability, T/C [10]: 64% | viability, T/C [11]: 94.5% | viability, T/C [12]: 48.5% | viability, T/C [13]: 43.1% | viability, T/C [14]: 69.1% | viability, T/C [15]: 62.8% | viability, T/C [16]: 49.5% | viability, T/C [17]: 43.8% | viability, T/C [18]: 47.6% | viability, T/C [19]: 30.9% | viability, T/C [20]: 41% | viability, T/C [21]: 38.5% | viability, T/C [22]: 34.4% | viability, T/C [23]: 38% | viability, T/C [24]: 41.8% | viability, T/C [25]: 30.6% | viability, T/C [26]: 36.6% | viability, T/C [27]: 32.9% | viability, T/C [28]: 26.6% | viability, T/C [29]: 37% | viability, T/C [30]: 42.5% | viability, T/C [31]: 30.9% | viability, T/C [32]: 28.6% | viability, T/C [33]: 26% | viability, T/C [34]: 35.2% | viability, T/C [35]: 34.4% | viability, T/C [36]: 24.2%

IC50 (second compound 0.0316 µM): 9.82 nM | IC50 (second compound 0.1 µM): 5.05 nM | IC50 (second compound 0.316 µM): < 0.999 nM | IC50 (second compound 1 µM): < 0.999 nM | IC50 (second compound 3.16 µM): < 0.999 nM | IC50 (second compound 10 µM): < 0.999 nM
Compound: CCc1c2c(nc3ccc(O)cc13)-c1cc3c(c(=O)n1C2)COC(=O)[C@]3(O)CC + Cc1cnc(CNC(=O)c2c(=O)c3ccc(N4CCCN(C)CC4)nc3n3c2sc2ccccc23)cn1
viability, T/C [37]: 105% | viability, T/C [38]: 79.5% | viability, T/C [39]: 47.5% | viability, T/C [1]: 30.2% | viability, T/C [40]: 22.1% | viability, T/C [3]: 12.9% | viability, T/C [41]: 62.2% | viability, T/C [42]: 58.3% | viability, T/C [43]: 39.8% | viability, T/C [7]: 25.6% | viability, T/C [44]: 18.2% | viability, T/C [9]: 9.44% | viability, T/C [45]: 49.3% | viability, T/C [46]: 37% | viability, T/C [47]: 24.6% | viability, T/C [13]: 31.4% | viability, T/C [48]: 13.5% | viability, T/C [15]: 6.95% | viability, T/C [49]: 38.1% | viability, T/C [50]: 19.4% | viability, T/C [51]: 24.9% | viability, T/C [19]: 18.7% | viability, T/C [52]: 13.7% | viability, T/C [21]: 0.14% | viability, T/C [53]: 20% | viability, T/C [54]: 25.2% | viability, T/C [55]: 21.1% | viability, T/C [25]: 14.4% | viability, T/C [56]: 17.8% | viability, T/C [27]: 0.15% | viability, T/C [57]: 23.8% | viability, T/C [58]: 22% | viability, T/C [59]: 23.6% | viability, T/C [31]: 5.75% | viability, T/C [60]: 0.31% | viability, T/C [33]: 0.21%

IC50 (second compound 0.0316 µM): > 10000 nM | IC50 (second compound 0.1 µM): < 31.6 nM | IC50 (second compound 0.316 µM): < 31.6 nM | IC50 (second compound 1 µM): < 31.6 nM | IC50 (second compound 3.16 µM): < 31.6 nM | IC50 (second compound 10 µM): < 31.6 nM
Compound: Cc1cccc(N(C)C(=O)C2C(O)CCN2c2nc(C)cc(C(F)(F)F)c2C#N)c1 (stereo not drawn) + Cc1cnc(CNC(=O)c2c(=O)c3ccc(N4CCCN(C)CC4)nc3n3c2sc2ccccc23)cn1
viability, T/C [1]: 106% | viability, T/C [2]: 101% | viability, T/C [3]: 109% | viability, T/C [4]: 103% | viability, T/C [5]: 95.8% | viability, T/C [6]: 98.6% | viability, T/C [7]: 37.9% | viability, T/C [8]: 68.2% | viability, T/C [9]: 56.2% | viability, T/C [10]: 80.6% | viability, T/C [11]: 81.8% | viability, T/C [12]: 49% | viability, T/C [13]: 50.5% | viability, T/C [14]: 46.1% | viability, T/C [15]: 50.2% | viability, T/C [16]: 48.9% | viability, T/C [17]: 57.9% | viability, T/C [18]: 42% | viability, T/C [19]: 32.6% | viability, T/C [20]: 35.1% | viability, T/C [21]: 39.1% | viability, T/C [22]: 31.9% | viability, T/C [23]: 38.3% | viability, T/C [24]: 29.3% | viability, T/C [25]: 31.7% | viability, T/C [26]: 27.9% | viability, T/C [27]: 33.5% | viability, T/C [28]: 30.5% | viability, T/C [29]: 29.1% | viability, T/C [30]: 34.8% | viability, T/C [31]: 30.5% | viability, T/C [32]: 37% | viability, T/C [33]: 31.1% | viability, T/C [34]: 26.7% | viability, T/C [35]: 32.2% | viability, T/C [36]: 29.9%

IC50 (second compound 0.0316 µM): > 316 nM | IC50 (second compound 0.1 µM): 237 nM | IC50 (second compound 0.316 µM): < 0.999 nM | IC50 (second compound 1 µM): < 0.999 nM | IC50 (second compound 3.16 µM): < 0.999 nM | IC50 (second compound 10 µM): < 0.999 nM
Compound: Cn1ncnc1[C@H]1c2n[nH]c(=O)c3cc(F)cc(c23)N[C@@H]1c1ccc(F)cc1 + Cc1cnc(CNC(=O)c2c(=O)c3ccc(N4CCCN(C)CC4)nc3n3c2sc2ccccc23)cn1
viability, T/C [37]: 102% | viability, T/C [38]: 99.4% | viability, T/C [39]: 104% | viability, T/C [1]: 94.8% | viability, T/C [40]: 86.5% | viability, T/C [3]: 77.9% | viability, T/C [41]: 68.2% | viability, T/C [42]: 75.2% | viability, T/C [43]: 77.9% | viability, T/C [7]: 56.5% | viability, T/C [44]: 58.5% | viability, T/C [9]: 48.1% | viability, T/C [45]: 40.9% | viability, T/C [46]: 53.4% | viability, T/C [47]: 44.3% | viability, T/C [13]: 44.4% | viability, T/C [48]: 48.4% | viability, T/C [15]: 29.5% | viability, T/C [49]: 28.2% | viability, T/C [50]: 34.9% | viability, T/C [51]: 27.3% | viability, T/C [19]: 44.1% | viability, T/C [52]: 33.2% | viability, T/C [21]: 33.2% | viability, T/C [53]: 34.9% | viability, T/C [54]: 27.5% | viability, T/C [55]: 26.4% | viability, T/C [25]: 30.6% | viability, T/C [56]: 29% | viability, T/C [27]: 33.3% | viability, T/C [57]: 31.2% | viability, T/C [58]: 27.4% | viability, T/C [59]: 30.1% | viability, T/C [31]: 35.5% | viability, T/C [60]: 27.4% | viability, T/C [33]: 30.2%

Source: PubChem BioAssay AID2060493 (Molecular Pharmacology Branch, DTP, NCI, 2025)
